Measurements: ChEMBL document CHEMBL1201862, “PubChem BioAssay data set” (2004)
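Tested at 5 concentrations; 48 h exposure; 96-well plates; endpoints linearly interpolated, else capped at highest concentration. GI50 is the concentration that inhibits growth by half.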 Calls of active or inactive are those of the source. Cut-off read from the data, not from the text of the source: active = GI50 up to about 1.1 µM and inactive = higher.

Columns and labels:
Assay in all cases: NCI tumour cell line growth inhibition, 48 h
786-0 = system: 786-0
A498 = system: A498
A549 = system: A549
ACHN = system: ACHN
BT-549 = system: BT-549
CAKI-1 = system: CAKI-1
CCRF-CEM = system: CCRF-CEM
COLO 205 = system: COLO 205
DU-145 = system: DU-145
EKVX = system: EKVX
HCT-116 = system: HCT-116
HCT-15 = system: HCT-15
HOP-62 = system: HOP-62
HOP-92 = system: HOP-92
HT-29 = system: HT-29
Hs-578T = system: Hs-578T
IGROV-1 = system: IGROV-1
K562 = system: K562
KM12 = system: KM12
LOX IMVI = system: LOX IMVI
M14 = system: M14
MCF7 = system: MCF7
MDA-MB-231 = system: MDA-MB-231
MDA-MB-435 = system: MDA-MB-435
MDA-N = system: MDA-N
MOLT-4 = system: MOLT-4
Malme-3M = system: Malme-3M
NCI-H23 = system: NCI-H23
NCI-H460 = system: NCI-H460
NCI-H522 = system: NCI-H522
NCI/ADR-RES = system: NCI/ADR-RES
OVCAR-3 = system: OVCAR-3
OVCAR-4 = system: OVCAR-4
OVCAR-5 = system: OVCAR-5
OVCAR-8 = system: OVCAR-8
PC-3 = system: PC-3
RPMI-8226 = system: RPMI-8226
RXF 393 = system: RXF 393
SF-268 = system: SF-268
SF-295 = system: SF-295
SF-539 = system: SF-539
SK-MEL-28 = system: SK-MEL-28
SK-MEL-2 = system: SK-MEL-2
SK-MEL-5 = system: SK-MEL-5
SK-OV-3 = system: SK-OV-3
SN12C = system: SN12C
SNB-19 = system: SNB-19
SNB-75 = system: SNB-75
SR = system: SR
SW-620 = system: SW-620
T47D = system: T47D
TK-10 = system: TK-10
U-251 = system: U-251
UACC-257 = system: UACC-257
UACC-62 = system: UACC-62
UO-31 = system: UO-31
HL-60 = system: HL-60
NCI-H226 = system: NCI-H226

## CC(C)(C)c1ccc(O)c(CN(Cc2c(O)ccc3ccccc23)C2CCCCC2)c1
786-0
  GI50: 15.5 µM (inactive)
A498
  GI50: 19.5 µM (inactive)
A549
  GI50: 18.5 µM (inactive)
ACHN
  GI50: 18.5 µM (inactive)
BT-549
  GI50: 19.6 µM (inactive)
CAKI-1
  GI50: 15.2 µM (inactive)
CCRF-CEM
  GI50: 13.9 µM (inactive)
COLO 205
  GI50: 15.7 µM (inactive)
DU-145
  GI50: 23.8 µM (inactive)
EKVX
  GI50: 15.8 µM (inactive)
HCT-116
  GI50: 16.9 µM (inactive)
HCT-15
  GI50: 16.4 µM
HOP-62
  GI50: 17.6 µM (inactive)
HOP-92
  GI50: 16.4 µM (inactive)
HT-29
  GI50: 16 µM (inactive)
Hs-578T
  GI50: 27.4 µM (inactive)
IGROV-1
  GI50: 15.7 µM (inactive)
K562
  GI50: 16.9 µM (inactive)
KM12
  GI50: 17.6 µM (inactive)
LOX IMVI
  GI50: 10.4 µM (inactive)
M14
  GI50: 12.6 µM (inactive)
MCF7
  GI50: 17.1 µM (inactive)
MDA-MB-231
  GI50: 16.8 µM (inactive)
MDA-MB-435
  GI50: 19.2 µM (inactive)
MDA-N
  GI50: 15.5 µM (inactive)
MOLT-4
  GI50: 18.6 µM (inactive)
Malme-3M
  GI50: 17.4 µM (inactive)
NCI-H23
  GI50: 16.4 µM (inactive)
NCI-H460
  GI50: 15.8 µM (inactive)
NCI-H522
  GI50: 14.8 µM (inactive)
NCI/ADR-RES
  GI50: 16.3 µM (inactive)
OVCAR-3
  GI50: 17.4 µM (inactive)
OVCAR-4
  GI50: 20.7 µM (inactive)
OVCAR-5
  GI50: 16.9 µM (inactive)
OVCAR-8
  GI50: 15.2 µM (inactive)
PC-3
  GI50: 14.5 µM (inactive)
RPMI-8226
  GI50: 26.6 µM (inactive)
RXF 393
  GI50: 17.5 µM (inactive)
SF-268
  GI50: 16.1 µM (inactive)
SF-295
  GI50: 18.3 µM (inactive)
SF-539
  GI50: 16.4 µM (inactive)
SK-MEL-28
  GI50: 20.5 µM (inactive)
SK-MEL-2
  GI50: 16.7 µM (inactive)
SK-MEL-5
  GI50: 16.5 µM (inactive)
SK-OV-3
  GI50: 24.9 µM (inactive)
SN12C
  GI50: 17.3 µM (inactive)
SNB-19
  GI50: 18.5 µM (inactive)
SNB-75
  GI50: 16 µM (inactive)
SR
  GI50: 16 µM (inactive)
SW-620
  GI50: 24.4 µM (inactive)
T47D
  GI50: 17.9 µM (inactive)
TK-10
  GI50: 15.8 µM (inactive)
U-251
  GI50: 16 µM (inactive)
UACC-257
  GI50: 15.7 µM (inactive)
UACC-62
  GI50: 15.6 µM (inactive)
UO-31
  GI50: 14.7 µM (inactive)

## CCOc1ccc(C(c2c(O)c3ccccc3oc2=O)c2c(O)c3ccccc3oc2=O)cc1
786-0
  GI50: 78.2 µM (inactive)
A498
  GI50: 36.1 µM (inactive)
A549
  GI50: 69.8 µM (inactive)
ACHN
  GI50: 74.6 µM (inactive)
BT-549
  GI50: 67.8 µM (inactive)
CAKI-1
  GI50: 93.8 µM (inactive)
CCRF-CEM
  GI50: 27 µM (inactive)
COLO 205
  GI50: > 100 µM (inactive)
DU-145
  GI50: > 100 µM (inactive)
EKVX
  GI50: 80.4 µM (inactive)
HCT-116
  GI50: 48.4 µM (inactive)
HCT-15
  GI50: 65.5 µM
HL-60
  GI50: 19.9 µM (inactive)
HOP-62
  GI50: 61.5 µM (inactive)
HOP-92
  GI50: 23.6 µM (inactive)
HT-29
  GI50: 40.9 µM (inactive)
Hs-578T
  GI50: 37.6 µM (inactive)
IGROV-1
  GI50: > 100 µM (inactive)
K562
  GI50: 53.8 µM (inactive)
KM12
  GI50: 56.9 µM (inactive)
LOX IMVI
  GI50: 66.5 µM (inactive)
M14
  GI50: 42.3 µM (inactive)
MCF7
  GI50: 46.6 µM (inactive)
MDA-MB-231
  GI50: 58.5 µM (inactive)
MDA-MB-435
  GI50: 70.3 µM (inactive)
MDA-N
  GI50: 60 µM (inactive)
MOLT-4
  GI50: 33.6 µM (inactive)
Malme-3M
  GI50: 48.8 µM (inactive)
NCI-H226
  GI50: 95.9 µM (inactive)
NCI-H23
  GI50: 44.4 µM (inactive)
NCI-H522
  GI50: 30.7 µM (inactive)
NCI/ADR-RES
  GI50: 98.6 µM (inactive)
OVCAR-3
  GI50: 43.8 µM (inactive)
OVCAR-4
  GI50: > 100 µM (inactive)
OVCAR-5
  GI50: > 100 µM (inactive)
OVCAR-8
  GI50: 43.9 µM (inactive)
PC-3
  GI50: 29.6 µM (inactive)
RPMI-8226
  GI50: 32.2 µM (inactive)
SF-268
  GI50: 44.5 µM (inactive)
SF-295
  GI50: > 100 µM (inactive)
SF-539
  GI50: 48 µM (inactive)
SK-MEL-28
  GI50: 80 µM (inactive)
SK-MEL-2
  GI50: 24.1 µM (inactive)
SK-MEL-5
  GI50: 44.5 µM (inactive)
SK-OV-3
  GI50: 47.4 µM (inactive)
SN12C
  GI50: 43.8 µM (inactive)
SNB-19
  GI50: 91 µM (inactive)
SR
  GI50: 26 µM (inactive)
SW-620
  GI50: 79.4 µM (inactive)
T47D
  GI50: 41.4 µM (inactive)
TK-10
  GI50: 49.5 µM (inactive)
U-251
  GI50: 32.7 µM (inactive)
UACC-257
  GI50: 35.6 µM (inactive)
UACC-62
  GI50: 38.7 µM (inactive)
UO-31
  GI50: 20.5 µM (inactive)
